Source: patent US10570108B2, “Substituted benzofuran compounds for the treatment of hepatitis C” (BRISTOL-MYERS SQUIBB COMPANY, priority 2015, dated 2020)
pEC50: −log10 of the molar value.

Assays:
HCV replicon = HCV replicon luciferase assay; assay type: cell-based; conditions: Hepatitis C virus, Huh-7, 72 h
Protocol: Cell lines. The cell lines used to evaluate compounds consist of a human hepatocyte derived cell line (Huh-7) that constitutively expresses a genotype 1b (Con-1) HCV replicon or a genotype 1b (Con-1) HCV replicon with an asparagine replacing the cysteine at amino acid 316, or a genotype 2a (JFH-1) replicon, containing a Renilla luciferase reporter gene. These cells were maintained in Dulbecco's modified Eagle medium (DMEM) containing 10% FBS, 100 U/mL penicillin/streptomycin and 1.0 mg/mL G418.
HCV replicon luciferase assay. To evaluate compound efficacy, titrated compounds were transferred to sterile 384-well tissue culture treated plates, and the plates were seeded with HCV replicon cells (50 μL at a density of 2.4×10^3 cells/well) in DMEM containing 4% FBS (final DMSO concentration at 0.5%). After 3 days incubation at 37° C., cells were analyzed for Renilla Luciferase activity using the EnduRen substrate (Promega cat #E6485) according to the manufacturer's directions. Briefly, the EnduRen substrate was diluted in DMEM and then added to the plates to a final concentration of 7.5 μM. The plates were incubated for at least 1 h at 37° C. then read on a Viewlux Imager (PerkinElmer) using a luminescence program. The 50% effective concentration (EC50) was calculated using the four-parameter logistic formula noted above.

HCV = conditions: cited from earlier work

SMILES: CCNc1cc2oc(-c3ccc(F)cc3)c(C(=O)NC)c2cc1-c1cccc(C(=O)NC2CCNC2=O)c1 (stereo not drawn) [Compound 4001]
- pEC50 (HCV replicon): 7.23

SMILES: CCNc1cc2oc(-c3ccc(F)cc3)c(C(=O)NC)c2cc1-c1cccc(C(=O)NCC(C)(C)C#N)c1 [Compound 4002]
- pEC50 (HCV replicon): > 7.00

SMILES: C#CC1(NC(=O)c2cccc(-c3cc4c(C(=O)NC)c(-c5ccc(F)cc5)oc4cc3NCC)c2)CCCCC1 [Compound 4003]
- pEC50 (HCV replicon): > 7.00

SMILES: CCNc1cc2oc(-c3ccc(F)cc3)c(C(=O)NC)c2cc1-c1cccc(C(=O)NC2(C#N)CCN(Cc3ccccc3)CC2)c1 [Compound 4004]
- pEC50 (HCV replicon): > 7.00

SMILES: C#CC1(NC(=O)c2cccc(-c3cc4c(C(=O)NC)c(-c5ccc(F)cc5)oc4cc3N(CC)S(C)(=O)=O)c2)CCCCC1 [Compound 5001]
- pEC50 (HCV replicon): > 7.00

SMILES: CCN(c1cc2oc(-c3ccc(F)cc3)c(C(=O)NC)c2cc1-c1cccc(C(=O)NC2(C(F)(F)F)CCCC2)c1)S(C)(=O)=O [Compound 5002]
- pEC50 (HCV replicon): 8.15

SMILES: CCN(c1cc2oc(-c3ccc(F)cc3)c(C(=O)NC)c2cc1-c1cccc(C(=O)N[C@@H]2CCNC2=O)c1)S(C)(=O)=O [Compound 5003]
- pEC50 (HCV replicon): 6.00 to 7.00

SMILES: CCN(c1cc2oc(-c3ccc(F)cc3)c(C(=O)NC)c2cc1-c1cccc(C(=O)N[C@H]2CCNC2=O)c1)S(C)(=O)=O [Compound 5004]
- pEC50 (HCV replicon): 6.00 to 7.00

SMILES: CCN(c1cc2oc(-c3ccc(F)cc3)c(C(=O)NC)c2cc1-c1cccc(C(=O)NC2(C#N)CCN(C(=O)OC(C)(C)C)CC2)c1)S(C)(=O)=O [Compound 5005]
- pEC50 (HCV replicon): > 7.00

SMILES: CCN(c1cc2oc(-c3ccc(F)cc3)c(C(=O)NC)c2cc1-c1cccc(C(=O)NC2(C#N)CCc3cc(OC)ccc3C2)c1)S(C)(=O)=O (stereo not drawn) [Compound 5006]
- pEC50 (HCV replicon): > 7.00

SMILES: CCN(c1cc2oc(-c3ccc(F)cc3)c(C(=O)NC)c2cc1-c1cccc(C(=O)NC2(C#N)CCOCC2)c1)S(C)(=O)=O [Compound 5007]
- pEC50 (HCV replicon): 8.38

SMILES: CNC(=O)c1c(-c2ccc(F)cc2)oc2cc(N(CC3CC3)S(C)(=O)=O)c(-c3cccc(C(=O)NC(C)(C)C=O)c3)cc12 [Compound 6001]
- pEC50 (HCV replicon): > 7.00

SMILES: CNC(=O)c1c(-c2ccc(F)cc2)oc2cc(N(CCF)S(C)(=O)=O)c(-c3cccc(C(=O)NCC4CCCC4NC(=O)OC(C)(C)C)c3)cc12 (stereo not drawn) [Compound 7001]
- pEC50 (HCV replicon): > 7.00

SMILES: CNC(=O)c1c(-c2ccc(F)cc2)oc2cc(N(CCO)S(C)(=O)=O)c(C3CC3)cc12 [HCV-796]
- hepatic toxicity (HCV; extended dosing of the combination regimens): hepatic toxicity observed
- HCV RNA levels in patients (HCV; single agent or combined with interferon and ribavirin): reduce HCV RNA levels
